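1) Cells in 96-well plates. 2) Compound, 48 h, 5 concentrations. 3) Linear interpolation between surrounding doses. 4) Unreached endpoint = highest concentration. TGI: concentration producing complete growth inhibition.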
Experiments:
Assay in all cases: DTP human tumour cell line panel, 48 h
KM12 colon = system: KM12 colon
SNB-75 CNS = system: SNB-75 CNS
SK-OV-3 ovarian = system: SK-OV-3 ovarian
HCT-15 colon = system: HCT-15 colon
SF-295 CNS = system: SF-295 CNS
RXF 393 renal = system: RXF 393 renal
M14 melanoma = system: M14 melanoma
RPMI-8226 leukemia = system: RPMI-8226 leukemia
DLD-1 colon = system: DLD-1 colon
RXF-631 renal = system: RXF-631 renal
SN12C renal = system: SN12C renal
OVCAR-3 ovarian = system: OVCAR-3 ovarian
SNB-19 CNS = system: SNB-19 CNS
LOX IMVI melanoma = system: LOX IMVI melanoma
HCT-116 colon = system: HCT-116 colon
COLO 205 colon = system: COLO 205 colon
OVCAR-5 ovarian = system: OVCAR-5 ovarian
U251 CNS = system: U251 CNS
HL-60(TB) leukemia = system: HL-60(TB) leukemia
NCI-H23 lung = system: NCI-H23 lung
NCI-H522 lung = system: NCI-H522 lung
SK-MEL-2 melanoma = system: SK-MEL-2 melanoma
UACC-62 melanoma = system: UACC-62 melanoma
K-562 leukemia = system: K-562 leukemia
OVCAR-4 ovarian = system: OVCAR-4 ovarian
ACHN renal = system: ACHN renal
NCI-H226 lung = system: NCI-H226 lung
CCRF-CEM leukemia = system: CCRF-CEM leukemia
DMS 273 small cell lung = system: DMS 273 small cell lung
IGROV1 ovarian = system: IGROV1 ovarian
A498 renal = system: A498 renal
SF-539 CNS = system: SF-539 CNS
M19-MEL melanoma = system: M19-MEL melanoma
HT29 colon = system: HT29 colon
786-0 renal = system: 786-0 renal
UO-31 renal = system: UO-31 renal
DMS 114 small cell lung = system: DMS 114 small cell lung
LXFL 529 NSCLC = system: LXFL 529 NSCLC
SNB-78 CNS = system: SNB-78 CNS
SK-MEL-28 melanoma = system: SK-MEL-28 melanoma
MOLT-4 leukemia = system: MOLT-4 leukemia
SF-268 CNS = system: SF-268 CNS
HOP-92 NSCLC = system: HOP-92 NSCLC
HOP-62 NSCLC = system: HOP-62 NSCLC
NCI-H460 lung = system: NCI-H460 lung
KM20L2 colon = system: KM20L2 colon
HCC-2998 colon = system: HCC-2998 colon
A549 NSCLC = system: A549 NSCLC
UACC-257 melanoma = system: UACC-257 melanoma
OVCAR-8 ovarian = system: OVCAR-8 ovarian
SW-620 colon = system: SW-620 colon
XF 498 CNS = system: XF 498 CNS
TK-10 renal = system: TK-10 renal
EKVX NSCLC = system: EKVX NSCLC
CAKI-1 renal = system: CAKI-1 renal
SR leukemia = system: SR leukemia
MALME-3M melanoma = system: MALME-3M melanoma
MDA-MB-435 = system: MDA-MB-435
HOP-18 NSCLC = system: HOP-18 NSCLC
SK-MEL-5 melanoma = system: SK-MEL-5 melanoma
MDA-MB-231 breast = system: MDA-MB-231 breast
MCF7 breast = system: MCF7 breast
NCI/ADR-RES ovarian = system: NCI/ADR-RES ovarian
PC-3 prostate = system: PC-3 prostate
HS 578T breast = system: HS 578T breast
DU-145 prostate = system: DU-145 prostate
T-47D breast = system: T-47D breast
BT-549 breast = system: BT-549 breast
MDA-N = system: MDA-N

Measured: TGI

N#Cc1ccc2cc3c(cc2c1)OCO3
74.3 µM: SNB-75 CNS
89.3 µM: UO-31 renal
> 100 µM: KM12 colon | SK-OV-3 ovarian | HCT-15 colon | SF-295 CNS | RXF 393 renal | M14 melanoma | RPMI-8226 leukemia | DLD-1 colon | RXF-631 renal | SN12C renal | OVCAR-3 ovarian | SNB-19 CNS | LOX IMVI melanoma | HCT-116 colon | COLO 205 colon | OVCAR-5 ovarian | U251 CNS | HL-60(TB) leukemia | NCI-H23 lung | NCI-H522 lung | SK-MEL-2 melanoma | UACC-62 melanoma | K-562 leukemia | OVCAR-4 ovarian | ACHN renal | NCI-H226 lung | CCRF-CEM leukemia | DMS 273 small cell lung | IGROV1 ovarian | A498 renal | SF-539 CNS | M19-MEL melanoma | HT29 colon | 786-0 renal | DMS 114 small cell lung | LXFL 529 NSCLC | SNB-78 CNS | SK-MEL-28 melanoma | MOLT-4 leukemia | SF-268 CNS | HOP-92 NSCLC | HOP-62 NSCLC | NCI-H460 lung | KM20L2 colon | HCC-2998 colon

COc1cccc2c1C(=O)OC2c1cccc2ccccc12 (stereo not drawn)
98.6 µM: RXF 393 renal
> 88.7 µM: OVCAR-4 ovarian
62.4 µM: HOP-62 NSCLC
68.4 µM: SNB-75 CNS
> 100 µM: KM12 colon | A549 NSCLC | SK-OV-3 ovarian | HCT-15 colon | UACC-257 melanoma | OVCAR-8 ovarian | SF-295 CNS | M14 melanoma | MDA-MB-435 | HOP-18 NSCLC | SW-620 colon | RPMI-8226 leukemia | DLD-1 colon | SK-MEL-5 melanoma | SN12C renal | OVCAR-3 ovarian | SNB-19 CNS | XF 498 CNS | LOX IMVI melanoma | TK-10 renal | HCT-116 colon | EKVX NSCLC | COLO 205 colon | OVCAR-5 ovarian | U251 CNS | MDA-MB-231 breast | MCF7 breast | CAKI-1 renal | HL-60(TB) leukemia | NCI/ADR-RES ovarian | NCI-H23 lung | NCI-H522 lung | SK-MEL-2 melanoma | PC-3 prostate | UACC-62 melanoma | K-562 leukemia | SR leukemia | ACHN renal | MALME-3M melanoma | HS 578T breast | NCI-H226 lung | CCRF-CEM leukemia | DMS 273 small cell lung | IGROV1 ovarian | A498 renal | SF-539 CNS | M19-MEL melanoma | HT29 colon | DU-145 prostate | 786-0 renal | UO-31 renal | DMS 114 small cell lung | T-47D breast | LXFL 529 NSCLC | SNB-78 CNS | SK-MEL-28 melanoma | MOLT-4 leukemia | SF-268 CNS | HOP-92 NSCLC | BT-549 breast | NCI-H460 lung | KM20L2 colon | HCC-2998 colon | MDA-N
